Experimental data taken from ChEMBL document CHEMBL1201862, “PubChem BioAssay data set” (2004).
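Where inhibition never reached the appropriate level, the endpoint shown equals the highest concentration tested. Otherwise, values were interpolated linearly from a five-concentration, 48-hour dose response in 96-well plates. GI50 is the concentration that inhibits growth by half.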 Activity calls are given as the source filed them. Rule as the data show it: active = GI50 up to about 1.1 µM and inactive = higher.

Key:
Experiment in all cases: inhibition of tumour cell growth, NCI panel, 48 h
UO-31 = system: UO-31
MCF7 = system: MCF7
OVCAR-8 = system: OVCAR-8
SNB-19 = system: SNB-19
EKVX = system: EKVX
SNB-75 = system: SNB-75
SK-OV-3 = system: SK-OV-3
SK-MEL-28 = system: SK-MEL-28
MDA-MB-435 = system: MDA-MB-435
T47D = system: T47D
NCI-H460 = system: NCI-H460
IGROV-1 = system: IGROV-1
RPMI-8226 = system: RPMI-8226
PC-3 = system: PC-3
LOX IMVI = system: LOX IMVI
CCRF-CEM = system: CCRF-CEM
MDA-MB-231 = system: MDA-MB-231
NCI-H23 = system: NCI-H23
SR = system: SR
BT-549 = system: BT-549

Row | SMILES | GI50 (UO-31) | GI50 (MCF7) | GI50 (OVCAR-8) | GI50 (SNB-19) | GI50 (EKVX) | GI50 (SNB-75) | GI50 (SK-OV-3) | GI50 (SK-MEL-28) | GI50 (MDA-MB-435) | GI50 (T47D) | GI50 (NCI-H460) | GI50 (IGROV-1) | GI50 (RPMI-8226) | GI50 (PC-3) | GI50 (LOX IMVI) | GI50 (CCRF-CEM) | GI50 (MDA-MB-231) | GI50 (NCI-H23) | GI50 (SR) | GI50 (BT-549)
1 | C=C(CN(CC)CC)C1(c2ccccc2)CC2(CCCC2)C(=O)O1 (configuration not stated) | > 100 µM (inactive) | > 100 µM (inactive) | > 100 µM (inactive) | > 100 µM (inactive) | > 100 µM (inactive) | 33 µM (inactive) | > 100 µM (inactive) | > 100 µM (inactive) | > 100 µM (inactive) | > 100 µM (inactive) | 68.7 µM (inactive) | > 100 µM (inactive) | 76.2 µM (inactive) | 67 µM (inactive) | > 100 µM (inactive) | > 100 µM (inactive) | > 100 µM (inactive) | 33 µM (inactive) | > 100 µM (inactive) | –
2 | O=C1NC2ON=C(c3ccccc3)C2C2ON=C(c3ccccc3)N12 (configuration not stated) | > 100 µM (inactive) | 77.4 µM (inactive) | 64.6 µM (inactive) | 92 µM (inactive) | > 100 µM (inactive) | > 100 µM (inactive) | > 100 µM (inactive) | – | – | – | > 100 µM (inactive) | 54.3 µM (inactive) | – | 72.4 µM (inactive) | 90.4 µM (inactive) | – | > 100 µM (inactive) | > 100 µM (inactive) | – | > 100 µM (inactive)
3 | COC(=O)c1nc(-c2nc(CCNC(=O)OC(C)(C)C)sc2Cl)sc1Cl | 89.7 µM (inactive) | 52 µM (inactive) | 35.5 µM (inactive) | > 100 µM (inactive) | > 100 µM (inactive) | 23.1 µM (inactive) | > 100 µM (inactive) | 70.1 µM (inactive) | 92 µM (inactive) | – | > 100 µM (inactive) | > 100 µM (inactive) | 41.1 µM (inactive) | 28.1 µM (inactive) | – | 32.2 µM (inactive) | – | 44.7 µM (inactive) | 35.2 µM (inactive) | 34.5 µM (inactive)
4 | NNC(=O)CNC(=O)CSc1nnc(COc2ccc(Cl)cc2)n1-c1ccccc1 | > 100 µM (inactive) | > 100 µM (inactive) | > 100 µM (inactive) | > 100 µM (inactive) | > 100 µM (inactive) | > 100 µM (inactive) | > 100 µM (inactive) | > 100 µM (inactive) | > 100 µM (inactive) | > 100 µM (inactive) | > 100 µM (inactive) | > 100 µM (inactive) | – | > 100 µM (inactive) | > 100 µM (inactive) | 60.5 µM (inactive) | > 100 µM (inactive) | > 100 µM (inactive) | – | –
5 | Cc1nc2cccc(F)c2c(=O)n1-c1nnc(C(F)(F)F)s1 | > 10 µM (inactive) | > 10 µM (inactive) | > 10 µM (inactive) | > 10 µM (inactive) | > 10 µM (inactive) | > 10 µM (inactive) | > 10 µM (inactive) | > 10 µM (inactive) | > 10 µM (inactive) | > 10 µM (inactive) | > 10 µM (inactive) | > 10 µM (inactive) | > 10 µM (inactive) | > 10 µM (inactive) | > 10 µM (inactive) | > 10 µM (inactive) | > 10 µM (inactive) | > 10 µM (inactive) | > 10 µM (inactive) | –
6 | CC(=O)Oc1cc(OC(C)=O)c2c(c1C)CC[C@@H]1[C@@H]2CC[C@]2(C)[C@@H](OC(C)=O)CC[C@@H]12 | 17.5 µM (inactive) | 19.3 µM (inactive) | 20.2 µM (inactive) | 18.6 µM (inactive) | 14.8 µM (inactive) | 22.5 µM (inactive) | – | 19 µM (inactive) | 16.7 µM (inactive) | – | 19.3 µM (inactive) | 17.2 µM (inactive) | 8.15 µM (inactive) | 15.6 µM (inactive) | 18.4 µM (inactive) | 17.5 µM (inactive) | 16.1 µM (inactive) | 20.2 µM (inactive) | 16.8 µM (inactive) | 18.5 µM (inactive)
7 | COc1cc(N(Cc2ccc3oc(=O)c(-c4ccccc4)nc3c2)Cc2ccc3oc(=O)c(-c4ccccc4)nc3c2)cc(OC)c1OC | > 10 µM (inactive) | > 10 µM (inactive) | > 10 µM (inactive) | > 10 µM (inactive) | > 10 µM (inactive) | > 10 µM (inactive) | > 10 µM (inactive) | > 10 µM (inactive) | > 10 µM (inactive) | > 10 µM (inactive) | > 10 µM (inactive) | > 10 µM (inactive) | > 10 µM (inactive) | > 10 µM (inactive) | > 10 µM (inactive) | > 10 µM (inactive) | > 10 µM (inactive) | > 10 µM (inactive) | > 10 µM (inactive) | –
8 | O=C(OC[C@H]1C[C@H]2C(=O)OCCC[C@H]2O1)c1ccccc1 | > 100 µM (inactive) | > 100 µM (inactive) | > 100 µM (inactive) | > 100 µM (inactive) | > 100 µM (inactive) | > 100 µM (inactive) | > 100 µM (inactive) | > 100 µM (inactive) | > 100 µM (inactive) | > 100 µM (inactive) | > 100 µM (inactive) | > 100 µM (inactive) | > 100 µM (inactive) | > 100 µM (inactive) | – | > 100 µM (inactive) | > 100 µM (inactive) | > 100 µM (inactive) | > 100 µM (inactive) | –
9 | COc1ccc(-c2c(C(C)=O)c(-c3ccccc3)n(C3OC(COC(C)=O)C(OC(C)=O)C(OC(C)=O)C3OC(C)=O)c(=S)c2C#N)cc1 (configuration not stated) | – | > 100 µM (inactive) | > 100 µM (inactive) | > 100 µM (inactive) | > 100 µM (inactive) | 80.9 µM (inactive) | > 100 µM (inactive) | > 100 µM (inactive) | > 100 µM (inactive) | > 100 µM (inactive) | > 100 µM (inactive) | > 100 µM (inactive) | – | – | > 100 µM (inactive) | > 100 µM (inactive) | > 100 µM (inactive) | > 100 µM (inactive) | > 100 µM (inactive) | –
10 | O=c1[nH]c(=O)n(C2CC(O)C(COP(=O)(OCC(Cl)(Cl)Cl)OCC(Cl)(Cl)Cl)O2)cc1F (configuration not stated) | 0.301 µM (active) | 0.0619 µM (active) | 0.556 µM (active) | 7.98 µM (inactive) | > 100 µM (inactive) | 6.1 µM (inactive) | > 48.6 µM (inactive) | > 28.6 µM (inactive) | > 86.3 µM (inactive) | > 50.8 µM (inactive) | < 0.0226 µM (active) | > 65.6 µM (inactive) | 3.72 µM (inactive) | 15.2 µM (inactive) | > 35.1 µM (inactive) | 0.195 µM (active) | > 47 µM (inactive) | 8.63 µM (inactive) | 0.391 µM (active) | –
11 | COc1ccc(C2C3=C(CCCC3=O)N(c3ccccc3)C3=C2C(=O)CCC3)cc1 | > 100 µM (inactive) | 43.8 µM (inactive) | – | 58.9 µM (inactive) | > 100 µM (inactive) | 28.2 µM (inactive) | 50.6 µM (inactive) | > 100 µM (inactive) | – | – | > 100 µM (inactive) | > 100 µM (inactive) | > 100 µM (inactive) | > 100 µM (inactive) | > 100 µM (inactive) | > 100 µM (inactive) | – | > 100 µM (inactive) | > 100 µM (inactive) | 29.4 µM (inactive)
